Measurements as given in PubChem BioAssay AID1963829 (Molecular Pharmacology Branch, DTP, NCI, 2024).

System: 935938-334-R-J1-PDC complex spheroid viability
Assay: Anticancer human tumor 935938-334-R-J1-PDC patient-derived small intestine adenocarcinoma cell line growth inhibition [POLQ]
Conditions: for IC50: curve of first compound; for viability, T/C: stronger effect = lower value
In short: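 PDC + HUVEC + MSC complex spheroids; POLQ inhibitors ± partner drugs; top conc. at/near clinical Cmax, else 10 microM (SN-38 1 microM), half-log dilutions; 37 degrees C, 5% CO2.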

[1] = second compound 0.0316 µM, first compound 0.0316 µM
[2] = second compound 0.0316 µM, first compound 0.1 µM
[3] = second compound 0.0316 µM, first compound 0.316 µM
[4] = second compound 0.0316 µM, first compound 1 µM
[5] = second compound 0.0316 µM, first compound 3.16 µM
[6] = second compound 0.0316 µM, first compound 10 µM
[7] = second compound 0.1 µM, first compound 0.0316 µM
[8] = second compound 0.1 µM, first compound 0.1 µM
[9] = second compound 0.1 µM, first compound 0.316 µM
[10] = second compound 0.1 µM, first compound 1 µM
[11] = second compound 0.1 µM, first compound 3.16 µM
[12] = second compound 0.1 µM, first compound 10 µM
[13] = second compound 0.316 µM, first compound 0.0316 µM
[14] = second compound 0.316 µM, first compound 0.1 µM
[15] = second compound 0.316 µM, first compound 0.316 µM
[16] = second compound 0.316 µM, first compound 1 µM
[17] = second compound 0.316 µM, first compound 3.16 µM
[18] = second compound 0.316 µM, first compound 10 µM
[19] = second compound 1 µM, first compound 0.0316 µM
[20] = second compound 1 µM, first compound 0.1 µM
[21] = second compound 1 µM, first compound 0.316 µM
[22] = second compound 1 µM, first compound 1 µM
[23] = second compound 1 µM, first compound 3.16 µM
[24] = second compound 1 µM, first compound 10 µM
[25] = second compound 3.16 µM, first compound 0.0316 µM
[26] = second compound 3.16 µM, first compound 0.1 µM
[27] = second compound 3.16 µM, first compound 0.316 µM
[28] = second compound 3.16 µM, first compound 1 µM
[29] = second compound 3.16 µM, first compound 3.16 µM
[30] = second compound 3.16 µM, first compound 10 µM
[31] = second compound 10 µM, first compound 0.0316 µM
[32] = second compound 10 µM, first compound 0.1 µM
[33] = second compound 10 µM, first compound 0.316 µM
[34] = second compound 10 µM, first compound 1 µM
[35] = second compound 10 µM, first compound 3.16 µM
[36] = second compound 10 µM, first compound 10 µM
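Also: spheroids exposed to drugs for seven days before viability read.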
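For viability, T/C in this document: 100% = DMSO vehicle control wells.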

Question: With `CC1COCCN1c1cc(-c2ccnn2C)c2ccnc(-c3ccn[nH]3)c2n1` (centres undefined) + Nc1ccc(C#CCN(C(=O)Cc2ncc(C(F)(F)F)cc2C(F)(F)F)c2ccc(F)cc2)nn1 as the molecule, how does the IC50 (second compound 0.0316 µM) read?
Answer: 0.0715 µM

Question: And the IC50 (second compound 0.1 µM)?
Answer: 0.0856 µM

Question: And the IC50 (second compound 0.316 µM)?
Answer: 0.0862 µM

Question: What about the IC50 (second compound 1 µM) of the same molecule?
Answer: 0.0838 µM

Question: What about the IC50 (second compound 3.16 µM) of the same molecule?
Answer: 0.0866 µM

Question: What about the IC50 (second compound 10 µM) of the same molecule?
Answer: 0.0915 µM

Question: What about the viability, T/C [1] of the same molecule?
Answer: 92.4%

Question: And the viability, T/C [2]?
Answer: 32.2%

Question: And the viability, T/C [3]?
Answer: 19.1%

Question: And the viability, T/C [4]?
Answer: 15.3%

Question: And the viability, T/C [5]?
Answer: 14.8%

Question: And the viability, T/C [6]?
Answer: 17.6%

Question: What about the viability, T/C [7] of the same molecule?
Answer: 89.4%

Question: And the viability, T/C [8]?
Answer: 43.9%

Question: What about the viability, T/C [9] of the same molecule?
Answer: 18.5%

Question: What about the viability, T/C [10] of the same molecule?
Answer: 13.6%

Question: And the viability, T/C [11]?
Answer: 21.2%

Question: And the viability, T/C [12]?
Answer: 19.4%

Question: And the viability, T/C [13]?
Answer: 117%

Question: And the viability, T/C [14]?
Answer: 40%

Question: And the viability, T/C [15]?
Answer: 17.4%

Question: And the viability, T/C [16]?
Answer: 13.3%

Question: What about the viability, T/C [17] of the same molecule?
Answer: 18.7%

Question: And the viability, T/C [18]?
Answer: 22%

Question: What about the viability, T/C [19] of the same molecule?
Answer: 103%

Question: What about the viability, T/C [20] of the same molecule?
Answer: 40.2%

Question: And the viability, T/C [21]?
Answer: 20.2%

Question: And the viability, T/C [22]?
Answer: 16.3%

Question: What about the viability, T/C [23] of the same molecule?
Answer: 16.8%

Question: What about the viability, T/C [24] of the same molecule?
Answer: 21.2%

Question: What about the viability, T/C [25] of the same molecule?
Answer: 91.7%

Question: What about the viability, T/C [26] of the same molecule?
Answer: 44%

Question: And the viability, T/C [27]?
Answer: 15.5%

Question: And the viability, T/C [28]?
Answer: 16.1%

Question: And the viability, T/C [29]?
Answer: 19.2%

Question: What about the viability, T/C [30] of the same molecule?
Answer: 27.6%

Question: And the viability, T/C [31]?
Answer: 93.4%

Question: And the viability, T/C [32]?
Answer: 46.3%

Question: And the viability, T/C [33]?
Answer: 19.4%

Question: What about the viability, T/C [34] of the same molecule?
Answer: 18.4%

Question: What about the viability, T/C [35] of the same molecule?
Answer: 19.3%

Question: What about the viability, T/C [36] of the same molecule?
Answer: 21.1%

Question: With `O=C(Nc1ccc(O)c(NS(=O)(=O)c2ccc(F)cc2)c1)c1ccc(-c2ccccc2)cc1` + Nc1ccc(C#CCN(C(=O)Cc2ncc(C(F)(F)F)cc2C(F)(F)F)c2ccc(F)cc2)nn1 as the molecule, how does the IC50 (second compound 0.0316 µM) read?
Answer: > 10 µM

Question: And the IC50 (second compound 0.1 µM)?
Answer: > 10 µM

Question: And the IC50 (second compound 0.316 µM)?
Answer: > 10 µM

Question: What about the IC50 (second compound 1 µM) of the same molecule?
Answer: > 10 µM

Question: What about the IC50 (second compound 3.16 µM) of the same molecule?
Answer: > 10 µM

Question: And the IC50 (second compound 10 µM)?
Answer: 7.74 µM

Question: And the viability, T/C [1]?
Answer: 107%

Question: What about the viability, T/C [2] of the same molecule?
Answer: 120%

Question: And the viability, T/C [3]?
Answer: 108%

Question: What about the viability, T/C [4] of the same molecule?
Answer: 89.2%

Question: And the viability, T/C [5]?
Answer: 81.7%

Question: What about the viability, T/C [6] of the same molecule?
Answer: 64.6%

Question: What about the viability, T/C [7] of the same molecule?
Answer: 91.9%

Question: What about the viability, T/C [8] of the same molecule?
Answer: 83.1%

Question: And the viability, T/C [9]?
Answer: 91.3%

Question: And the viability, T/C [10]?
Answer: 106%

Question: What about the viability, T/C [11] of the same molecule?
Answer: 104%

Question: What about the viability, T/C [12] of the same molecule?
Answer: 79%

Question: And the viability, T/C [13]?
Answer: 112%

Question: And the viability, T/C [14]?
Answer: 92.9%

Question: And the viability, T/C [15]?
Answer: 96.8%

Question: What about the viability, T/C [16] of the same molecule?
Answer: 110%

Question: And the viability, T/C [17]?
Answer: 112%

Question: And the viability, T/C [18]?
Answer: 67.2%

Question: What about the viability, T/C [19] of the same molecule?
Answer: 83.1%

Question: And the viability, T/C [20]?
Answer: 105%

Question: And the viability, T/C [21]?
Answer: 114%

Question: What about the viability, T/C [22] of the same molecule?
Answer: 126%

Question: And the viability, T/C [23]?
Answer: 112%

Question: And the viability, T/C [24]?
Answer: 59.4%

Question: And the viability, T/C [25]?
Answer: 91.8%

Question: And the viability, T/C [26]?
Answer: 98%

Question: What about the viability, T/C [27] of the same molecule?
Answer: 111%

Question: What about the viability, T/C [28] of the same molecule?
Answer: 101%

Question: And the viability, T/C [29]?
Answer: 116%

Question: What about the viability, T/C [30] of the same molecule?
Answer: 70.9%

Question: And the viability, T/C [31]?
Answer: 127%

Question: What about the viability, T/C [32] of the same molecule?
Answer: 85.6%

Question: And the viability, T/C [33]?
Answer: 101%

Question: And the viability, T/C [34]?
Answer: 94.5%

Question: And the viability, T/C [35]?
Answer: 99.5%

Question: What about the viability, T/C [36] of the same molecule?
Answer: 35.9%
